Counter-ions that a name gives are not always drawn.
Assay: Solubility of (S)-citalopram oxalate in alcohol
Assay type: physicochemical
Conditions: 5 gm in 35 ml of methanol at 25° C.
From the text: According to another aspect of the present invention there is provided a process for preparation of the Form II of (S)-citalopram oxalate. Thus (S)-citalopram oxalate is mixed with an alcohol. (S)-Citalopram oxalate prepared by the process described in, for example, EP 0347066 or the Form I of (S)-citalopram oxalate may be used. The alcohol is either methanol or ethanol or isopropyl alcohol. The solubility of (S)-citalopram oxalate depends on the alcohol used and volume of the alcohol to (S)-citalopram oxalate. For example, 5 gm of (S)-citalopram oxalate is soluble in 35 ml of methanol at 25° C. If (S)-citalopram oxalate is soluble in the conditions of experiment, the Form II of (S)-citalopram oxalate is precipitated from the solution. The techniques such as cooling, partial removal of the solvent, addition of anti-solvent like diisopropyl ether may be used to precipitate the Form II of (S)-citalopram oxalate. If the (S)-citalopram oxalate is insoluble in the alcohol, after mixing (S)-citalopram oxalate and the alcohol the solid is filtered from the contents to obtain Form II of (S)-citalopram oxalate.

For `CN(C)CCC[C@@]1(c2ccc(F)cc2)OCc2cc(C#N)ccc21` [(S)-citalopram oxalate, 1(S)-[3-(Dimethylamino)propyl]-1-(4-fluorophenyl)-1,3-dihydro-5-isobenzofurancarbonitrile], the solubility in methanol was “soluble”.

— patent publication US20050154052A1, “Novel crystalline forms of (s)-citalopram oxalate” (Hetero Drugs Limited, priority 2003, published 2005)
